Source: US20060148730A1, “Method of treating tuberculosis” (priority 2003, published 2006)
≈ marks a conversion by molar mass, not a printed value.

The compounds below were run on M. tuberculosis H37Rv (assay: MIC vs. M. tuberculosis H37Rv, microplate Alamar Blue assay (MABA)). Details: Mycobacterium tuberculosis, H37RV, Table 4; read-out: MIC.
Type: cell-based
`CC[C@H]1OC(=O)[C@H](C)[C@@H](OC2CC(C)(OC)C(OC(=O)c3ccccc3)C(C)O2)[C@H](C)[C@@H](OC2OC(C)CC(N(C)C)C2O)[C@](C)(OC)C[C@@H](C)C(=O)[C@H](C)[C@H]2N(NCCCc3ccnc4ccccc34)C(=O)O[C@]12C` (stereo partly shown) [Compound 1SH53a] was tested, and the MIC was 1.69 µM (≈ 1.79 µg/mL).

Same assay, conditions: Table 2a, 11,12-diols; anti-TB activity; read-out: MIC
Work on `CC[C@H]1OC(=O)[C@H](C)C(=O)[C@H](C)[C@@H](O[C@@H]2O[C@H](C)C[C@H](N(C)C)[C@H]2O)[C@](C)(OC)C[C@@H](C)C(=O)[C@H](C)[C@@H](O)[C@]1(C)O` [RU56006] yielded an MIC greater than 128 µM.

Same assay, conditions: Table 3; parallel-synthesis carbazate library products, SPE purified; read-out: MIC
In the case of `CC[C@H]1OC(=O)[C@H](C)[C@@H](O[C@H]2CC(C)(OC)[C@@H](O)[C@H](C)O2)[C@H](C)[C@@H](O[C@@H]2O[C@H](C)C[C@H](N(C)C)[C@H]2O)[C@](C)(OC)C[C@@H](C)C(=O)[C@H](C)[C@H]2N(/N=C/c3c(C)noc3-c3ccccc3)C(=O)O[C@]12C` (stereo partly shown) [C12′], the MIC is reported as 9 µM (≈ 8.61 µg/mL). In the case of `CC[C@H]1OC(=O)[C@H](C)[C@@H](O[C@H]2CC(C)(OC)[C@@H](O)[C@H](C)O2)[C@H](C)[C@@H](O[C@@H]2O[C@H](C)C[C@H](N(C)C)[C@H]2O)[C@](C)(OC)C[C@@H](C)C(=O)[C@H](C)[C@H]2N(NCCCc3ccccc3)C(=O)O[C@]12C` (stereo partly shown) [A2′], the MIC is reported as 10 µM (≈ 9.06 µg/mL). Compound `CC[C@H]1OC(=O)[C@H](C)[C@@H](O[C@H]2CC(C)(OC)[C@@H](O)[C@H](C)O2)[C@H](C)[C@@H](O[C@@H]2O[C@H](C)C[C@H](N(C)C)[C@H]2O)[C@](C)(OC)C[C@@H](C)C(=O)[C@H](C)[C@H]2N(NCc3nc4ccccc4s3)C(=O)O[C@]12C` (stereo partly shown) [F7′] has an MIC of 16 µM (≈ 15 µg/mL). `CCOC(=O)c1cc(-c2ccc(Cl)cc2)oc1CNN1C(=O)O[C@]2(C)[C@@H](CC)OC(=O)[C@H](C)[C@@H](O[C@H]3CC(C)(OC)[C@@H](O)[C@H](C)O3)[C@H](C)[C@@H](O[C@@H]3O[C@H](C)C[C@H](N(C)C)[C@H]3O)[C@](C)(OC)C[C@@H](C)C(=O)[C@H](C)[C@@H]12` (stereo partly shown) [B1′] gave an MIC greater than 18 µM. With `CC[C@H]1OC(=O)[C@H](C)[C@@H](O[C@H]2CC(C)(OC)[C@@H](O)[C@H](C)O2)[C@H](C)[C@@H](O[C@@H]2O[C@H](C)C[C@H](N(C)C)[C@H]2O)[C@](C)(OC)C[C@@H](C)C(=O)[C@H](C)[C@H]2N(NCc3sccc3Oc3ccccc3)C(=O)O[C@]12C` (stereo partly shown) [G4′] the MIC was 13 µM (≈ 12.7 µg/mL). Work on `CC[C@H]1OC(=O)[C@H](C)[C@@H](O[C@H]2CC(C)(OC)[C@@H](O)[C@H](C)O2)[C@H](C)[C@@H](O[C@@H]2O[C@H](C)C[C@H](N(C)C)[C@H]2O)[C@](C)(OC)C[C@@H](C)C(=O)[C@H](C)[C@H]2N(NCc3c[nH]nc3-c3ccc(F)cc3)C(=O)O[C@]12C` (stereo partly shown) [D5′] yielded an MIC of 25 µM (≈ 24.1 µg/mL). `CC[C@H]1OC(=O)[C@H](C)[C@@H](O[C@H]2CC(C)(OC)[C@@H](O)[C@H](C)O2)[C@H](C)[C@@H](O[C@@H]2O[C@H](C)C[C@H](N(C)C)[C@H]2O)[C@](C)(OC)C[C@@H](C)C(=O)[C@H](C)[C@H]2N(NCC3=Cc4ccccc4OC3)C(=O)O[C@]12C` (stereo partly shown) [G6′] gave an MIC of 11 µM (≈ 10.3 µg/mL). In the case of `CC[C@H]1OC(=O)[C@H](C)[C@@H](O[C@H]2CC(C)(OC)[C@@H](O)[C@H](C)O2)[C@H](C)[C@@H](O[C@@H]2O[C@H](C)C[C@H](N(C)C)[C@H]2O)[C@](C)(OC)C[C@@H](C)C(=O)[C@H](C)[C@H]2N(NCc3[nH]ncc3Br)C(=O)O[C@]12C` (stereo partly shown) [D1′], the MIC is reported as 23 µM (≈ 21.8 µg/mL). For `CC[C@H]1OC(=O)[C@H](C)[C@@H](O[C@H]2CC(C)(OC)[C@@H](O)[C@H](C)O2)[C@H](C)[C@@H](O[C@@H]2O[C@H](C)C[C@H](N(C)C)[C@H]2O)[C@](C)(OC)C[C@@H](C)C(=O)[C@H](C)[C@H]2N(NCc3ccc4c(c3)nnn4C)C(=O)O[C@]12C` (stereo partly shown) [H7′], the MIC was greater than 22 µM. `CC[C@H]1OC(=O)[C@H](C)[C@@H](O[C@H]2CC(C)(OC)[C@@H](O)[C@H](C)O2)[C@H](C)[C@@H](O[C@@H]2O[C@H](C)C[C@H](N(C)C)[C@H]2O)[C@](C)(OC)C[C@@H](C)C(=O)[C@H](C)[C@H]2N(NCc3cc(Br)cs3)C(=O)O[C@]12C` (stereo partly shown) [F11′] gave an MIC of 12.7 µM (≈ 12.2 µg/mL).

Same assay, conditions: Table 5; read-out: MIC
With `CCC1OC(=O)C(C)C(O)C(C)C(OC2OC(C)CC([N+](C)(C)Cc3ccccc3)C2OCc2ccccc2)C(C)(OC)CC(C)C(=NOCc2ccccc2)C(C)C(O)C1(C)O` (stereo not shown) [Compound 2GY11] the MIC was 7.1 µM.
